Laboratory results as given in patent US20240408053A1, “ENTERITIS-SUPPRESSING COMPOSITION” (KOBE GAKUIN EDUCATIONAL FOUNDATION, priority 2021, published 2024).

Legend:
Type in all cases: in vivo, mice
NF-κB p65 = NF-κB p65 activation level in colon tissue extract by ELISA; conditions: group ES: 2.0% v/v ethanol diet + 2.5 mg sesaminol per day oral, 2 weeks, vs group E
Excerpt: It has been reported that chronic consumption of an excessive amount of ethanol can induce inflammation associated with tumor formation in colon tissue. Therefore, in order to verify whether oral administration of sesaminol has a preventive effect on ethanol-induced colitis, the expression levels of inflammatory cytokines (TNF-α and IL-6) and chemokine (MCP-1) in the large intestinal lamina propria of the mice in the four groups (groups C, S, E, and ES) were examined by qRT-PCR and ELISA. The NF-κB activity in the mice in the four groups was also examined. NF-κB is a transcription factor that is involved in expression of genes regulating inflammation and is activated by exposure of immune cells to pro-inflammatory factors.

[1] = TG amount in the liver, 4 weeks; conditions: mean ±SD
Procedure: The liver function and plasma lipid level in the mice in each group were examined by measuring the percentage of the liver weight relative to the body weight, the triglyceride (TG) concentration in the liver, the aspartate aminotransferase (AST) activity in the plasma, the alanine aminotransferase (ALT) activity in the plasma, and the TG concentration in the plasma of the mice in each group.
Each liver was homogenized at 4° C., and TG was extracted according to the product protocol of a reagent kit for TG extraction from tissue (Lipid Droplet Isolation Kit, produced by Cell Biolabs, Inc.). The amounts of TG and protein in each extracted sample were quantified according to the product protocol of each measuring reagent and converted to the TG amount (mg) per protein (g) for evaluation.

[2] = test system: ethanol-induced lesions in mouse colon; assay: Microscopic evaluation of colon tissue (HE, TB, PAS, MUC2 staining), 4 weeks; conditions: group ES: 2.0% v/v ethanol diet + 2.5 mg sesaminol per day oral
Procedure: In order to verify the longer-term effect of oral administration of sesaminol on ethanol-induced oxidative stress in mouse colon, the colonic epithelium of the mice in each group (groups C, E, S, and ES) described in Example 7 was HE-stained, TB-stained, and periodic-acid-Schiff (PAS)-stained and observed under a microscope (FIGS. 10(A),(B), and (C)). Immunostaining with MUC2 polyclonal antibody was then performed (FIG. 10(D)). HE staining, TB staining, and immunostaining with MUC2 polyclonal antibody were performed in the same manner as in Example 2.
Colon tissue samples were each fixed in a 10% v/v neutral formaldehyde solution overnight at room temperature and paraffin-embedded. The colon tissue sections were then stained with PAS staining reagent for the detection of goblet cells. Each stained specimen was observed under a microscope and subjected to image analysis.

claudin-1 = assay: Western blotting of claudin-1 in colon tissue; conditions: group ES: 2.0% v/v ethanol diet + 2.5 mg sesaminol per day oral, 2 weeks, vs group E; lower than group C
Excerpt: Acetaldehyde, which accumulates during ethanol metabolism, is known to disrupt intestinal tight junctions (TJs) via dissociation of colonic epithelium TJ proteins (ZO-1, occludin, and claudin-1) from the cytoskeleton. […] Therefore, whether oral administration of sesaminol would affect ethanol-induced intestinal barrier dysfunction was examined by analyzing the expression levels of colonic epithelial TJ proteins and the plasma LPS level in the mice in the four groups (groups C, S, E, and ES).
WB was performed in the same manner as in Example 4 above. The following primary antibodies were used. • Anti-mouse zonula occludens-1 protein (ZO-1) rabbit polyclonal antibody • Anti-mouse occludin rabbit polyclonal antibody • Anti-mouse claudin-1 rabbit polyclonal antibody

## Oc1cc2c(cc1C1OCC3C(c4ccc5c(c4)OCO5)OCC13)OCO2 (centres unmarked) [Sesaminol]
NF-κB p65
  NF-κB p65 activation level: significantly lower than that in group E
[1]; EtOH (2.0% v/v) + Sesaminol group ES
  Liver TG: 51.8 ± 9.5 mg/g of protein
[1]; Sesaminol (2.5 mg/d) group S
  Liver TG: 38.1 ± 12.4 mg/g of protein
[2]
  histological image of colon tissue (epithelium atrophy, goblet cells, mucus-secreting cells): tendency of returning to the histological image of group C
claudin-1
  expression level of claudin-1: significantly higher than those in group E
